Tested on: HMC3-MHCII^Luc cells
Assay: RNAseq differential gene expression / GSEA in AAT-treated resting and IFNγ-activated microglia
Type: cell-based, human
Method: • A) Human microglial HMC3-MHCII^Luc cells were plated at day 0, presented IFNγ at day 1 until day 2 and measurement of the luciferase activity and cell viability were done at day 4. • B) AATs were applied from day 0 to day 4 on HMC3-MHCII^Luc cells. Activation was measured by the activity of MHCII-driven luciferase and represented as percentage of IFNγ control for all conditions. All conditions were performed in triplicates, error bars represent standard deviation. • C) Bulk RNA extraction was performed on the same HMC3-MHCII^Luc cultures. Quality control (QC) were applied to RNA before sequencing. QC of the sequencing was done prior to mapping on the human genome. Mapped reads were counted, and differential gene expression was measured between the conditions (see Table 1-10). (FIGS. 3A, 3B and 3C)
RNAseq data from plasma-derived and recombinant AATs were pooled, normalized and analyzed through Gene Set Enrichment Analysis (GSEA) (https://www.gsea-msigdb.org/gsea/index.jsp; Subramanian, A., et al. Proc. Natl. Acad. Sci. USA, 102 (43): 15545-15550, 2005.). […] Importantly, both the IFNγ and inflammatory responses were dampened by AAT. However, the downregulation of the inflammatory response genes in (C) was just under significance.
Tables of genes related to antigen presentation (Table 1), cytokine signaling (Table 2), interferon signaling (Table 3) and complement activation (Table 4). Inflammatory top gene (FC>2; p-value<0.05; left column), were defined by differential expression between untreated and IFNγ-treated cells (inflammation; middle column).
HMC3-MHCII^Luc and HMC3-MHCII^Luc; Ubi^AAT (endogenous AAT) cell lines were seeded into 96-well plates at a density of approximately 2500 cells/well. HMC3-MHCII^Luc cell line was plated and was added plasma-derived AAT and recombinant AATs (produced in CHO cells, AAT 1 and AAT 2) 3h later and at ranged concentration (1; 10 or 25 μM). 24h after, still in the presence of exogenous or endogenous AAT, microglial activation was induced with a 24h-long IFNγ presentation (10 ng/ml). IFNγ was then removed and both HMC3-MHCII^Luc and HMC3-MHCII^Luc; Ubi^AAT cells were cultured for 48h in exogenous or endogenous presence of AAT before cell cultures were beeing assessed for cell viability and activation (See FIGS. 3A, 3B, 3C and 4A,4B, 4C).
RNA samples from plasma-derived AAT and recombinant AAT Nr. 2 were checked for quality (2100 Bioanalyzer, Agilent) and libraries prepared with Truseq RNA Library Kit (Illumina, RS-122-2001). Libraries were sequenced (HiSeq 4000, Illumina) controlled for the quality of sequencing (FastQC), mapped on the human genome (STAR v.2.7.0f; UCSC hg38), reads were counted (HTSeq v0.9.1) and the differential expression analysis was performed with the R/Bioconductor package (edgeR 1.30.1.).

[1] = AAT (left block), GBS risk gene
[2] = AAT, resting microglia, AD risk gene
[3] = AAT, resting microglia, MCT*/PN risk gene
[4] = AAT, resting microglia, MS risk gene
[5] = AAT, resting microglia, PD risk gene
[6] = FC AAT, resting microglia, M2 gene

## alpha1-antitrypsin (AAT) protein
[1]
  CDC42 expression FC AAT: −1.35
  FOS expression FC AAT: −2.31
  GLRX5 expression FC AAT: 1.12
  GUK1 expression FC AAT: 1.57
  HAGH expression FC AAT: 1.40
  HMGB2 expression FC AAT: −1.20
  MARCKS expression FC AAT: −2.06
  PKN2 expression FC AAT: −1.47
  SENP6 expression FC AAT: −1.47
  SMCHD1 expression FC AAT: −1.39
  ZNF12 expression FC AAT: −1.26
AAT treatment in absence or presence of IFNγ, pooled plasma-derived and recombinant AAT RNAseq data
  IFNγ and inflammatory responses (GSEA gene families): dampened
[2]
  ABCA7 expression FC: 1.75
  APOE expression FC: 1.74
  BIN1 expression FC: 1.33
  CD2AP expression FC: −1.39
  CLU expression FC: −1.30
  PICALM expression FC: −1.48
  PSEN2 expression FC: 1.45
  TREM2 expression FC: 2.22
[3]
  ARHGEF10 expression FC: 1.19
  CCT5 expression FC: −1.17
  DNAJB2* expression FC: 1.39
  DST expression FC: −1.35
  DYNC1H1* expression FC: −1.40
  FIG4* expression FC: −1.42
  GAN* expression FC: −1.21
  GARS* expression FC: −1.21
  GDAP1* expression FC: −1.54
  GNB4* expression FC: −1.56
  HSPB1* expression FC: 1.67
  IFRD1 expression FC: 1.23
  IGHMBP2* expression FC: 1.39
  KIF1A expression FC: 2.76
  KIF1B* expression FC: −1.21
  LRSAM1* expression FC: 1.36
  MTMR2* expression FC: −1.36
  PLEKHG5* expression FC: 1.49
  SBF2 expression FC: −1.20
  SCN9A expression FC: −1.50
  SCN11A expression FC: 4.49
  SETX expression FC: −1.23
  SPTLC1 expression FC: −1.23
  TFG* expression FC: −1.28
  TRIM2* expression FC: −1.39
  TRPV4* expression FC: 1.92
  WNK1 expression FC: −1.14
[4]
  AGAP2 expression FC: 1.30
  AHI1 expression FC: −1.46
  CBLB expression FC: −1.24
  CD40 expression FC: 1.17
  CD58 expression FC: −1.61
  CDC37 expression FC: 1.26
  CYP24A1 expression FC: 2.55
  EXTL2 expression FC: −1.76
  HLA-A expression FC: 1.48
  HLA-DRB1 expression FC: −1.47
  METTL1 expression FC: 1.22
  MPV17L2 expression FC: 1.31
  PTGER4 expression FC: −1.29
  PTPRK expression FC: −1.38
  RPS6KB1 expression FC: −1.23
  SLC30A7 expression FC: −1.77
[5]
  ATP13A2 expression FC: 1.42
  DNAJC6 expression FC: −1.14
  DNAJC13 expression FC: −1.37
  GIGYF2 expression FC: −1.16
  LRP10 expression FC: 1.29
  LRRK2 expression FC: −3.98
  PLA2G6 expression FC: 1.55
  SYNJ1 expression FC: −1.33
  TMEM230 expression FC: −1.42
  VPS13C expression FC: −1.41
  VPS35 expression FC: −1.42
[6]
  ACAN expression FC: 1.37
  AP2A2 expression FC: 1.26
  APLP1 expression FC: 1.41
  APRT expression FC: 1.16
  BAIAP2 expression FC: 1.45
  C16orf45 expression FC: 1.31
  CHPF expression FC: 1.80
  COL1A1 expression FC: 1.58
  COL11A1 expression FC: 1.14
  DBN1 expression FC: 1.42
  ENG expression FC: 1.29
  EXTL1 expression FC: 2.19
  FEZ1 expression FC: 1.45
  FGD3 expression FC: 1.76
  FOXC1 expression FC: 1.26
  FZD2 expression FC: 1.39
  FZD7 expression FC: 1.24
  GADD45GIP1 expression FC: 1.55
  GREM1 expression FC: 1.69
  GUK1 expression FC: 1.57
  HSPG2 expression FC: 1.58
  IGFBP2 expression FC: 1.63
  ITGA11 expression FC: 1.65
  MARCH4 expression FC: 1.28
  MBOAT7 expression FC: 1.44
  METRN expression FC: 2.23
  MIF expression FC: 1.83
  MMP1 expression FC: 2.51
  MOSPD3 expression FC: 1.51
  MXRA8 expression FC: 1.40
  NID1 expression FC: 1.16
  NTN4 expression FC: 1.25
  PAPPA expression FC: 1.24
  PLEC expression FC: 1.69
  PLTP expression FC: 1.28
  PREX1 expression FC: 1.25
  PRSS36 expression FC: 1.58
  PTPRS expression FC: 1.27
  RAB3IL1 expression FC: 1.55
  RASA4B expression FC: 1.46
  RASAL1 expression FC: 1.52
  SART1 expression FC: 1.44
  SEMA3B expression FC: 1.50
  SERPINH1 expression FC: 1.21
  SLC22A5 expression FC: 1.22
  STC2 expression FC: 1.42
  TAGLN expression FC: 1.37
  TBCD expression FC: 1.26
  TEKT4P2 expression FC: 2.46
  TGFB1I1 expression FC: 1.31
  TNFRSF1B expression FC: 1.46
  TTC9 expression FC: 1.65
  ZIC2 expression FC: 2.42
FC inflammation + AAT, M2 gene
  AHNAK2 expression FC: 1.40
  ANPEP expression FC: 1.25
  ARHGDIB expression FC: 1.28
  BAIAP2 expression FC: 1.24
  BGN expression FC: 1.27
  CHPF expression FC: 1.58
  CLIP3 expression FC: 1.25
  CLMP expression FC: 1.22
  COL11A1 expression FC: 1.16
  DBN1 expression FC: 1.31
  ENG expression FC: 1.35
  EXTL1 expression FC: 1.78
  FADS2 expression FC: 1.20
  FAT1 expression FC: 1.34
  FEZ1 expression FC: 1.34
  FGD3 expression FC: 2.31
  FZD2 expression FC: 1.37
  FZD7 expression FC: 1.36
  GADD45GIP1 expression FC: 1.51
  GATA6 expression FC: 1.47
  GREM1 expression FC: 1.56
  GUK1 expression FC: 1.31
  HCK expression FC: 1.44
  HLA-DRB5 expression FC: 2.09
  HSPG2 expression FC: 1.41
